Test results from US8987277B2, “Fungicide” (priority 2010, dated 2015).
In brackets after ≈: the same amount, converted by molar mass.

Tests used:
C. albicans = assay: Minimum inhibiting concentration towards unicellular fungi, serial dilution; assay type: cell-based; settings: Sabouraud's agar
Description: (§1) Discovering the Minimum Inhibiting Concentration of the Inventive Substance (Forms A and B) Towards Unicellular Fungi
(§2) Fungi were grown in Sabouraud's agar. The effect of the substance was assessed by means of the serial dilution method.

C. glabrata = assay: as above; assay type: cell-based; settings: Sabouraud's agar
Description: as §1, §2

C. krusei = assay: as above; assay type: cell-based; settings: Sabouraud's agar
Description: as §1, §2

C. parapsilosis = assay: as above; assay type: cell-based; settings: Sabouraud's agar
Description: as §1, §2

S. cerevisiae = assay: as above; assay type: cell-based; settings: Sabouraud's agar
Description: as §1, §2

Aspergillus = assay: Minimum inhibiting concentration towards multicellular fungi; assay type: cell-based
Source text: (§3) Discovering the Minimum Inhibiting Concentration of the Inventive Agent Towards Multicellular Fungi

Mucor = assay: as above; assay type: cell-based
Source text: as §3

A. alternata = assay: Biocidal effect on spores of fungi that cause plant diseases and damage agricultural products; assay type: cell-based, Alternaria alternata; settings: fungi spores (a mixture)
Description: (§4) Various fungi were used in the experiment—vegetative forms and spores of Alternaria alternata, Fusarium moniliforme, Botrytis spp. that cause diseases of plants and damage agricultural products. Biocidal properties were tested on spores of fungi cultures with optical density of the inoculated dose p E=0.310.

F. moniliforme = assay: as above; assay type: cell-based, Fusarium moniliforme; settings: fungi spores (a mixture)
Description: as §4

Botrytis spp = assay: as above; assay type: cell-based; settings: fungi spores (a mixture)
Description: as §4

Aspergillis niger = assay: Biocidal effect on spores of fungi that damage paper, wood and dyes; assay type: cell-based; settings: fungi spores (a mixture)
Description: (§5) Various fungi were used in the experiment—vegetative forms and spores of Aspergillis niger, Penicillium ochro-chloron that damage paper, wood and dyes thereof.
(§6) Biocidal properties were tested on spores of fungi cultures with optical density of the inoculated dose p E=0.310.

[1] = tested on: Penicillium ochro-chloron; assay: as above; assay type: cell-based; settings: fungi spores (a mixture)
Description: as §5, §6

[2] = tested on: Candida albicans strain 15; assay: Assessment of the fungicide effect, serial dilutions in microplates with neutralizer; assay type: cell-based; settings: for Concentration that destroys the fungi (fungicide effect): Candida genus, exposure time 24 h
Description: (§7) Strains of fungi of Candida genus (Candida albicans strain 15) that are resistant towards disinfecting agents and trichophyton (Trichophiton gypseum), which were cultivated in Sabouraud's agar, were used as test microorganisms.
(§8) Forms A and B were dissolved in sterile distilled water.
(§9) The method of serial dilutions in microplates was used in the experiment. The dissolved substance was titrated in the culture medium, then the test microorganisms were introduced and after certain intervals of disinfection time the neutralizer was added, namely 0.1% solution of citric acid. After the exposure during 1-2 minutes the contents of each well were plated to solid culture media.
(§10) The following concentrations of the substance were studied: 0.1-0.05-0.025-0.0125% of the drug for action duration of 1, 3, 5, 10, 20, minutes and 1.0-1.5-3.0 and 24 h.
(§11) All inoculations were incubated at an optimum temperature during 24 hours.
(§12) The fungicide effect was assessed according to the presence or absence of growing microorganisms in the culture media.

Trichophiton gypseum = assay: as above; assay type: cell-based; settings: for Concentration that destroys the fungi (fungicide effect): trichophyton genus, exposure time 24 h
Description: as §7, §8, §9, §10, §11, §12

[3] = read-out: Minimum inhibiting (biocidal) concentration (MIC) of the substance

Molecule	Minimum inhibiting concentration (C. albicans) [µg/mL]	Minimum inhibiting concentration (C. glabrata) [µg/mL]	Minimum inhibiting concentration (C. krusei) [µg/mL]	Minimum inhibiting concentration (C. parapsilosis) [µg/mL]	Minimum inhibiting concentration (S. cerevisiae) [µg/mL]	Minimum inhibiting concentration (MIC) (Aspergillus) [µg/mL]	Minimum inhibiting concentration (MIC) (Mucor) [µg/mL]	Minimum inhibiting (biocidal) concentration of the substance (A. alternata) [µg/mL]	Minimum inhibiting (biocidal) concentration of the substance (F. moniliforme) [µg/mL]	Minimum inhibiting (biocidal) concentration of the substance (Botrytis spp) [µg/mL]	Minimum inhibiting (biocidal) concentration (MIC) of the substance (Aspergillis niger) [µg/mL]	Minimum inhibiting (biocidal) concentration (MIC) of the substance [1] [µg/mL]	Concentration that destroys the fungi (fungicide effect) [2] [%]	Concentration that destroys the fungi (fungicide effect) (Trichophiton gypseum) [%]	other results
2,4-dioxo-5-(2-hydroxy-3,5-dichlorobenzylidiene)amino-1,3-pyrimidine salt	1	0.125	1	0.250	0.125	2	1	4.0	8.0	8.0	2.0	8.0	0.025	0.1	–
OC(Cn1cncn1)(Cn1cncn1)c1ccc(F)cc1F [Fluconazole, 2-(2,4-difluorophenyl)-1,3-bis(1N-1,2,4-triazol-1-yl)-2-propanol, reference compound]	–	–	–	–	–	–	–	32	64	64	–	–	–	–	MIC (C. albicans; Candida albicans): 2 µg/mL (≈ 6.53 µM); MIC (C. glabrata; Nakaseomyces glabratus): 64 µg/mL (≈ 209 µM); MIC (C. krusei; Pichia kudriavzevii): 32 µg/mL (≈ 104 µM); MIC (C. parapsilosis; Lodderomyces parapsilosis): 0.25 µg/mL (≈ 0.816 µM); MIC (S. cerevisiae; Saccharomyces cerevisiae): 0.125 µg/mL (≈ 0.408 µM); MIC (Aspergillus): 64 µg/mL (≈ 209 µM); MIC (Mucor): 64 µg/mL (≈ 209 µM); MIC (Aspergillis niger; [3]): 64 µg/mL (≈ 209 µM); MIC [1, 3]: 64 µg/mL (≈ 209 µM); Fungicide effect (presence or absence of growth) ([2]; Candida, same conditions as the inventive substance): did not destroy the microbes; Fungicide effect (presence or absence of growth) (Trichophiton gypseum; trichophyton, same conditions as the inventive substance): did not destroy the microbes
Dimer of sodium salt of 2,4-dioxo-5-(2-hydroxy-3,5-dichlorobenzylidiene)amino-1,3-pyrimidine	1	0.250	1	0.125	0.125	2	1	2.0	4.0	4.0	1.0	4.0	0.025	0.1	–
